In ChEMBL document CHEMBL3045789, “Tetracyclic spirooxindole blockers of hNaV1.7: activity in vitro and in CFA-induced inflammatory pain model” (Med Chem Res, 2013):
pIC50: −log10 of the molar value. ≈ marks a conversion by molar mass, not a printed value. Calls of active or inactive are those of the source. The rule behind the calls is not given here.

How the values were obtained:
CYP3A4 = CYP3A4 (Homo sapiens, UniProt P08684); assay: Inhibition of Homo sapiens (human) recombinant CYP3A4 at 10 uM by fluorogenic assay; type: ADME
[1] = biological target: Sodium channel protein type 9 subunit alpha (Homo sapiens, UniProt Q15858); assay: Inhibition of Homo sapiens (human) NaV1.7 expressed in HEK293 cells assessed as decrease in [14C]guanidinium influx after 2 hr by liquid scintillation counting analysis; type: cell-based
[2] = Solubility of the compound in phosphate buffered saline at pH 7.4; type: physicochemical
[3] = Cmax in Sprague-Dawley Rattus norvegicus (rat) at 10 mg/kg, po; type: ADME, organism-based; set-up: dose 10 mg/kg, route oral; settings: in vivo
Cytochrome P450 3A4 = Cytochrome P450 3A4 (Homo sapiens, UniProt P08684); assay: Inhibition of Homo sapiens (human) recombinant CYP3A4 by fluorogenic assay; type: ADME
[4] = Clearance in Sprague-Dawley Rattus norvegicus (rat) at 1 mg/kg, iv; type: ADME, organism-based; set-up: dose 1 mg/kg, route intravenous; settings: in vivo
[5] = AUClast in Sprague-Dawley Rattus norvegicus (rat) at 10 mg/kg, po; type: ADME, organism-based; set-up: time 0 - last, dose 10 mg/kg, route oral; settings: plasma
[6] = Oral bioavailability in Sprague-Dawley Rattus norvegicus (rat) at 10 mg/kg; type: ADME, organism-based; settings: in vivo
[7] = Terminal half life in Sprague-Dawley Rattus norvegicus (rat) at 1 mg/kg, iv; type: ADME, organism-based; set-up: dose 1 mg/kg, route intravenous; settings: in vivo, read-out: beta t1/2 (converted)
[8] = Volume of distribution at steady state in Sprague-Dawley Rattus norvegicus (rat) at 1 mg/kg, iv; type: ADME, organism-based; set-up: dose 1 mg/kg, route intravenous; settings: in vivo, read-out: Vdss
[9] = Metabolic stability in Canis lupus familiaris (dog) hepatocytes assessed as compound remaining after 2 hr; type: ADME, cell-based, Hepatocyte; settings: read-out: Stability
[10] = Cmax in Sprague-Dawley Rattus norvegicus (rat) at 1 mg/kg, iv; type: ADME, organism-based; set-up: dose 1 mg/kg, route intravenous; settings: in vivo
[11] = Metabolic stability in Rattus norvegicus (rat) hepatocytes assessed as compound remaining after 2 hr; type: ADME, cell-based, Hepatocyte; settings: read-out: Stability
Rattus norvegicus [12] = assay: Analgesic activity in CFA-induced Rattus norvegicus (rat) inflammatory pain model assessed as reduction of mechanical allodynia at 10 mg/kg, po after 1 hr by von Frey test relative to vehicle-treated control; type: functional; set-up: scale not given: the % may be the effect or the level left
[13] = AUClast in Sprague-Dawley Rattus norvegicus (rat) at 1 mg/kg, iv; type: ADME, organism-based; set-up: time 0 - last, dose 1 mg/kg, route intravenous; settings: plasma
hERG (KCNH2) = hERG (KCNH2) (Homo sapiens, UniProt Q12809); assay: Inhibition of Homo sapiens (human) ERG expressed in HEK293 cells at 10 uM after 3 hr by rubidium efflux assay; type: cell-based; settings: HEK293 cells expressing human ERG
[14] = Apparent permeability across basolateral to apical side in Homo sapiens (human) Caco2 cells; type: ADME, cell-based; settings: Caco-2
[15] = Cytotoxicity against Homo sapiens (human) HepG2 cells assessed as cell viability after 16 hr; type: cell-based; settings: read-out: Activity
[16] = Metabolic stability in Homo sapiens (human) hepatocytes assessed as compound remaining after 2 hr; type: ADME, cell-based, Hepatocyte; settings: read-out: Stability
[17] = Plasma protein binding in Rattus norvegicus (rat); type: ADME, cell-free; settings: read-out: PPB (converted)
[18] = Tmax in Sprague-Dawley Rattus norvegicus (rat) at 10 mg/kg, po; type: ADME, organism-based; set-up: dose 10 mg/kg, route oral; settings: in vivo
[19] = Apparent permeability across apical to basolateral side in Homo sapiens (human) Caco2 cells; type: ADME, cell-based; settings: Caco-2
Rattus norvegicus [20] = assay: Analgesic activity in CFA-induced Rattus norvegicus (rat) inflammatory pain model assessed as reduction of mechanical allodynia at 40 mg/kg, po after 1 hr by von Frey test; type: functional, organism-based; set-up: dose 40 mg/kg
[21] = Metabolic stability in Rattus norvegicus (rat) liver microsomes assessed as compound remaining after 30 min; type: ADME; settings: read-out: Stability
Rattus norvegicus [22] = assay: Analgesic activity in CFA-induced Rattus norvegicus (rat) inflammatory pain model assessed as reduction of mechanical allodynia at 10 mg/kg, ip after 1 hr by von Frey test; type: functional, organism-based; set-up: dose 10 mg/kg

CYP3A4, sequence (P08684 whole entry): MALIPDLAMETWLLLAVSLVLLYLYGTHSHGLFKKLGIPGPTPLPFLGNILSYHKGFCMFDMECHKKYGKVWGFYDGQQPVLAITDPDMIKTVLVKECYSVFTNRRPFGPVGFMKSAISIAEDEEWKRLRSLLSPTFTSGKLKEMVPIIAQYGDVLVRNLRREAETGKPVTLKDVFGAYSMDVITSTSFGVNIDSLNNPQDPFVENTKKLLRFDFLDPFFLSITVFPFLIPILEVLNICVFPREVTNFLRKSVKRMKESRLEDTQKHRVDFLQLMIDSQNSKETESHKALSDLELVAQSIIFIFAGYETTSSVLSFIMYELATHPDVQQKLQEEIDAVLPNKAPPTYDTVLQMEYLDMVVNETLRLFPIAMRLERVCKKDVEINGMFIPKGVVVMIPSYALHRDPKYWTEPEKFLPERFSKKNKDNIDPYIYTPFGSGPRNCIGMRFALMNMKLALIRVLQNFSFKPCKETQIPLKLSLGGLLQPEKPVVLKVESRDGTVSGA
Sodium channel protein type 9 subunit alpha, sequence (Q15858 whole entry): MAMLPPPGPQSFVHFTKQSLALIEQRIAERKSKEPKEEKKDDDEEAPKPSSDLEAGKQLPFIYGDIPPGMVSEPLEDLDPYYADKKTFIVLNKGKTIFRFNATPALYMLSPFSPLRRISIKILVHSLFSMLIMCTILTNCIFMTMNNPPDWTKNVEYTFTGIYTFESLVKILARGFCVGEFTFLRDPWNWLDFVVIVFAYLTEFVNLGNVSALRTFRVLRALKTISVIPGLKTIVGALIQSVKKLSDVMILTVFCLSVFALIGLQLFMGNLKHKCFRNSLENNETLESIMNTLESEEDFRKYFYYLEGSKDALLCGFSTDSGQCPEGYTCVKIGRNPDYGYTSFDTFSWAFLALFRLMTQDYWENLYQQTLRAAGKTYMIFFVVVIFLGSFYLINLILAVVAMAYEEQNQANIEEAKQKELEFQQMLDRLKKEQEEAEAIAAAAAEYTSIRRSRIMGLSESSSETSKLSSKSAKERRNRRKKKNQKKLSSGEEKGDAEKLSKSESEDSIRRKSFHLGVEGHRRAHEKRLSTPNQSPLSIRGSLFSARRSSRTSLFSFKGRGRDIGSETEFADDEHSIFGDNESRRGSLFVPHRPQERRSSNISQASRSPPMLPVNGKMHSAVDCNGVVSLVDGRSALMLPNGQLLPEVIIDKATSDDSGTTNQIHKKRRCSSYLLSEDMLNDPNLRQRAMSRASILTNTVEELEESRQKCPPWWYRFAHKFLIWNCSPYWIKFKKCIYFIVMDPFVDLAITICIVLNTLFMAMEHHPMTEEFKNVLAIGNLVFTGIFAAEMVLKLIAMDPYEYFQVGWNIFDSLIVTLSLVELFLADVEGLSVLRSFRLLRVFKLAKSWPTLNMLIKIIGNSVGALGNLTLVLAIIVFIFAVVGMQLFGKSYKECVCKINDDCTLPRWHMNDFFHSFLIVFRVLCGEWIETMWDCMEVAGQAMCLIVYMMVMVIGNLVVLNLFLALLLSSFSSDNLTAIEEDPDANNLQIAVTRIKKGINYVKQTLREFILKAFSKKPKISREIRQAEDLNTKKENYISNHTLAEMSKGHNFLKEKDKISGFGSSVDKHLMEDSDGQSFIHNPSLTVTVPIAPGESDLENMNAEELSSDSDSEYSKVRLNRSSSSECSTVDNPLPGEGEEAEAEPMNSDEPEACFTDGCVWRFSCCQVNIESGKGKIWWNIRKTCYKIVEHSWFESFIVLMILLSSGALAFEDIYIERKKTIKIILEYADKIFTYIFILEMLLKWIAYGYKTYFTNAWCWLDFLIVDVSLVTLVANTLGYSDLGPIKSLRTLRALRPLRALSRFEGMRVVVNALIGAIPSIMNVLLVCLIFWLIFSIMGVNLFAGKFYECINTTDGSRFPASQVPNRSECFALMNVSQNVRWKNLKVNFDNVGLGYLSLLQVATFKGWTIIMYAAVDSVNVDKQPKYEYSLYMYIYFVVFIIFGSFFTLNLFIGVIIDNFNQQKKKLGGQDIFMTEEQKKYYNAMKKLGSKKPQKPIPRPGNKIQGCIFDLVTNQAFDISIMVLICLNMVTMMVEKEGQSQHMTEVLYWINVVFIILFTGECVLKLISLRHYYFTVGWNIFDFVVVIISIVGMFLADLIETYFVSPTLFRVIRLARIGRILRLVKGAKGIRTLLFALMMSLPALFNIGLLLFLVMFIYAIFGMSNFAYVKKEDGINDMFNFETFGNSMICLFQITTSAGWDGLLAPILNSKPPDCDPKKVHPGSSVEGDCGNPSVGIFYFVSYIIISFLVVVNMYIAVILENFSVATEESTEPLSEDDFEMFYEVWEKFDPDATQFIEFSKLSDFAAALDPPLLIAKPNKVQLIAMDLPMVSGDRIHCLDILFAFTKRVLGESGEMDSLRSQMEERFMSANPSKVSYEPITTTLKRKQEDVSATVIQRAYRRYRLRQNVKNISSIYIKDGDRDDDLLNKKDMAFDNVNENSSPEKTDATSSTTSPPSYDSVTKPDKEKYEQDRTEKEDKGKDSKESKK
Cytochrome P450 3A4, sequence (P08684 whole entry): as the sequence (P08684 whole entry) above
hERG (KCNH2), sequence (Q12809 whole entry): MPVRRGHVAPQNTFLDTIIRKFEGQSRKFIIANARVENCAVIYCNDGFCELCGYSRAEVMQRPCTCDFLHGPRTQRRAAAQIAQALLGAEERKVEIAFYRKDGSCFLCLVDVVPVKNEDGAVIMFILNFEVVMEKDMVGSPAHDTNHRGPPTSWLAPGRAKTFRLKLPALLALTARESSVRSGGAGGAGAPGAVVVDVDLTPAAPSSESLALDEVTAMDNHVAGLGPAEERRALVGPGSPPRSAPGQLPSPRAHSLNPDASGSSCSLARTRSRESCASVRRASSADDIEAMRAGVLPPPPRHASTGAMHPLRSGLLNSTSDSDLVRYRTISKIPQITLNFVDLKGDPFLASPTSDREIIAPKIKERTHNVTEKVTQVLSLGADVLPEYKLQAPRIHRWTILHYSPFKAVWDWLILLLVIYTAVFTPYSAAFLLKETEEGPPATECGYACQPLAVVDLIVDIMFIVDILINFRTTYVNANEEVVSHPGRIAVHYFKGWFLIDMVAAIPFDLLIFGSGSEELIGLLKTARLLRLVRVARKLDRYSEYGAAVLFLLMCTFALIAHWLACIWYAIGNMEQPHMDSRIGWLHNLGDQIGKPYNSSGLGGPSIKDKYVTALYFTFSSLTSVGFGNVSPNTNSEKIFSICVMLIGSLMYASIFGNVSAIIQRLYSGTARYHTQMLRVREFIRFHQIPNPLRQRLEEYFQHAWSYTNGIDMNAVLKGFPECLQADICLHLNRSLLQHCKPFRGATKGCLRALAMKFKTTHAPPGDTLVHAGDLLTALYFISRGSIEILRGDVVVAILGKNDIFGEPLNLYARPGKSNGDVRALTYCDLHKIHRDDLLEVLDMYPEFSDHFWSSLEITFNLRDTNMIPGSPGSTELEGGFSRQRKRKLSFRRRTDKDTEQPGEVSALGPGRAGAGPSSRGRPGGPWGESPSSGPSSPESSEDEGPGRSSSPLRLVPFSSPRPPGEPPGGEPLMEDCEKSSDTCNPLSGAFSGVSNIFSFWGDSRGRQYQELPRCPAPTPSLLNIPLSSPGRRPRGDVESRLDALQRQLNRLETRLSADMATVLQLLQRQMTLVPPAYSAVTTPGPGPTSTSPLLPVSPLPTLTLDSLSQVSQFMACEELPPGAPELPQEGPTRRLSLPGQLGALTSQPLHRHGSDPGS

| Structure (SMILES) | inhibition at 10 µM (CYP3A4) [%] | pIC50 [1] | solubility [2] [µg/mL] | also measured |
| --- | --- | --- | --- | --- |
| COc1cc2c(cn1)OCC21C(=O)N(C[C@H]2CCCO2)c2ccccc21 (stereo partly specified) | 14 | 7.30 | < 5 | – |
| COc1ccc2c(n1)C1(CO2)C(=O)Nc2ccccc21 (stereo unspecified) | 27 | < 6.00 | 52 (≈ 194 µM) | – |
| Cc1cc2c(cc1C)C1(CO2)C(=O)N(Cc2ccccn2)c2ccccc21 (stereo unspecified) | 43 | 6.64 | 6 (≈ 16.8 µM) | – |
| COc1ccc2c(n1)C1(CO2)C(=O)N(Cc2ccc(C(F)(F)F)o2)c2ccccc21 (stereo unspecified) | 26 | 6.89 | < 5 | Cmax [3]: 12.7 ng/mL; pIC50 (Cytochrome P450 3A4): < 5.00; clearance [4]: 66.7 mL/min/kg; AUC(0-t) [5]: 77.1 ng·h/mL; bioavailability [6]: 3.2%; half-life [7]: 1.9 h; Vd [8]: 4.1 L/kg; remaining at 2 h [9]: 49%; Cmax [10]: 884 ng/mL; remaining at 2 h [11]: 18%; Activity (Rattus norvegicus [12]): 59%; AUC(0-t) [13]: 244 ng·h/mL; inhibition at 3 h, 10 µM (hERG (KCNH2)): 7.5%; Papp B→A [14]: 8.8 ×10⁻⁶ cm/s; viability at 16 h [15]: > 96%; remaining at 2 h [16]: 29%; fraction unbound [17]: 0.05; Tmax [18]: 4 h; Papp A→B [19]: 9.1 ×10⁻⁶ cm/s |
| COc1cc2c(cc1F)OCC21C(=O)N(Cc2ccccn2)c2ccccc21 (stereo unspecified) | 16 | 6.33 | 36 (≈ 95.6 µM) | – |
| COc1cc2c(cn1)OCC21C(=O)N(CC2CCCCO2)c2ccccc21 (stereo unspecified) | 22 | 7.00 | 67 (≈ 183 µM) | – |
| COc1cc2c(cc1C)C1(CO2)C(=O)N(Cc2ccccn2)c2ccccc21 (stereo unspecified) | 61 | 5.94 | 7 (≈ 18.8 µM) | – |
| CCCCCN1C(=O)C2(COc3cc(F)c(F)cc32)c2ccccc21 (stereo unspecified) | 50 | 6.62 | < 5 | – |
| CCCCCN1C(=O)C2(COc3cc4c(cc32)OCO4)c2ccccc21 (stereo unspecified) | 97 | – | – | – |
| O=C1N(Cc2ccccn2)c2ccccc2C12COc1cc(F)c(F)cc12 (stereo unspecified) | 30 | 6.57 | 13 (≈ 35.7 µM) | – |
| COc1ccc2c(c1)OCC21C(=O)N(C[C@H]2CCCO2)c2ccccc21 (stereo partly specified) | 18 | 6.96 | 45 (≈ 128 µM) | – |
| COCCOc1ccc2c(c1)OCC21C(=O)N(Cc2ccccn2)c2ccccc21 (stereo unspecified) | 22 | 6.82 | 46 (≈ 114 µM) | – |
| CCCCCN1C(=O)C2(COc3cc(OC)ccc32)c2ccccc21 (stereo unspecified) | 64 | 7.22 | < 5 | – |
| COc1ccc2c(n1)C1(CO2)C(=O)N(Cc2ccc3c(c2)OCCO3)c2ccccc21 (stereo unspecified) | 63 | 7.52 | 5 (≈ 12 µM) | – |
| COc1ccc2c(n1)C1(CO2)C(=O)N(Cc2ccccn2)c2ccccc21 (stereo unspecified) | 42 | 6.74 | < 5 | – |
| COc1ccc2c(c1)OCC21C(=O)N(CC2CCCCO2)c2ccccc21 (stereo unspecified) | 35 | 8.00 | 14 (≈ 38.3 µM) | – |
| COc1ccc2c(n1)C1(CO2)C(=O)N(Cc2ncccc2C(F)(F)F)c2ccccc21 (stereo unspecified) | 49 | < 6.60 | < 5 | – |
| COc1cc2c(cn1)OCC21C(=O)N(Cc2ccc(C(F)(F)F)o2)c2ccccc21 (stereo unspecified) | 74 | 8.40 | < 5 | – |
| COc1cc2c(cn1)OCC21C(=O)N(C[C@@H]2CCCO2)c2ccccc21 (stereo partly specified) | 22 | 7.70 | 61 (≈ 173 µM) | Activity (Rattus norvegicus [20]): inactive; remaining at 0.5 h [21]: 8%; Activity (Rattus norvegicus [22]): inactive |
| COc1cc2c(cc1F)C1(CO2)C(=O)N(Cc2ccc(C(F)(F)F)o2)c2ccccc21 (stereo unspecified) | 69 | 6.37 | < 5 | – |
| COc1cc2c(cc1F)C1(CO2)C(=O)N(Cc2ccccn2)c2ccccc21 (stereo unspecified) | 36 | 6.72 | 15 (≈ 39.9 µM) | – |
| COc1cc2c(cc1OC)C1(CO2)C(=O)N(Cc2ccc(Cl)s2)c2ccccc21 (stereo unspecified) | 75 | 6.15 | 8 (≈ 18.7 µM) | – |
| COc1ccc2c(n1)C1(CO2)C(=O)N(Cc2ccc(Cl)s2)c2ccccc21 (stereo unspecified) | 73 | 7.22 | < 5 | – |
| COc1ccc2c(n1)C1(CO2)C(=O)N(Cc2csc(C(C)C)n2)c2ccccc21 (stereo unspecified) | 70 | 7.22 | 5 (≈ 12.3 µM) | – |
| N#Cc1cc2c(cc1F)OCC21C(=O)N(Cc2ncccc2C(F)(F)F)c2ccccc21 (stereo unspecified) | 10 | < 6.00 | < 5 | – |
| COc1ccc2c(c1)OCC21C(=O)N(Cc2ccccn2)c2ccccc21 (stereo unspecified) | 29 | 8.10 | 25 (≈ 69.8 µM) | – |
| COc1cc2c(cn1)OCC21C(=O)Nc2ccccc21 (stereo unspecified) | 13 | 6.46 | 52 (≈ 194 µM) | – |
